Assay results published in the NIST ThermoML archive (doi:10.1021/je3002514).
Numbers after ± are expanded uncertainties.

Conditions: Crystal; visual observation

| Normal melting temperature | Compound |
| --- | --- |
| 38.0 ± 2 °C | CCCC[P+](C)(CCCC)CCCC.COS(=O)(=O)[O-] [tributylmethylphosphonium methyl sulfate] |
| 62.0 ± 2 °C | CCCC[N+](C)(CCCC)CCCC.COS(=O)(=O)[O-] [N,N-dibutyl-N-methyl-1-butanaminium methyl sulfate] |
